Data on twelve compounds can be found in PubChem BioAssay AID334 (DTP/NCI, 2004).

Values joined by “and” are separate entries in the source; they are usually repeats but may differ in a detail not shown here. Identical values can stand only once. Inconclusive results and toxic doses are left out.

The subject of the experiment is CD2F1 mice, intracerebral P388 leukemia, median survival T/C%. Briefly: NCI In Vivo Anticancer Drug Screen. Data for tumor model P388 Leukemia (intracerebral) in CD2F1 (CDF1) mice. The following applies: endpoint: median survival time, higher = longer survival. On the procedure: The antitumor activity of compounds was measured in mice bearing transplantable tumors. Survival or tumor size were measured and the results are expressed as the measurement made in the treated group (T) divided by the measurement made in the vehicle treated control group (C). The tumor model used in this assay is P388 Leukemia (intracerebral) in CD2F1 (CDF1) mice

Where [1] appears, read: dose: 1.0 mg/kg/injection, schedule: Q01DX009 (ip), vehicle: saline.
Setting [2] is: dose: 100.0 mg/kg/injection, schedule: Q01DX009 (ip), vehicle: saline with Tween-80.
Where [3] appears, read: dose: 200.0 mg/kg/injection, schedule: Q01DX009 (ip), vehicle: saline with Tween-80.
Setting [4] is: dose: 100.0 mg/kg/injection, schedule: Q01DX009 (ip), vehicle: saline.
Where [5] appears, read: dose: 200.0 mg/kg/injection, schedule: Q01DX009 (ip), vehicle: saline.

On to `O=C1C=C(N2CC2)C(=O)C=C1N1CC1`, for which the T/C reads like this: (dose: 0.12 mg/kg/injection, schedule: Q01DX009 (ip), vehicle: saline) 104 % of control and 105 % of control and 106 % of control; (dose: 0.25 mg/kg/injection, schedule: Q01DX009 (ip), vehicle: saline) 100 % of control and 101 % of control and 105 % of control; (dose: 0.5 mg/kg/injection, schedule: Q01DX009 (ip), vehicle: saline) 105 % of control and 107 % of control and 111 % of control; under setting [1], 92 % of control and 93 % of control and 100 % of control.
As to `CCCCCCCCCCCCCCCCCC(=O)NC(CC(=O)OCCCCCC)c1ccc(N(CCCl)CCCl)cc1` (centres undefined), the T/C runs as follows: (dose: 2.15 mg/kg/injection, schedule: Q03HX008 (ip), vehicle: saline) 105 % of control; (dose: 4.3 mg/kg/injection, schedule: Q03HX008 (ip), vehicle: saline) 105 % of control; (dose: 8.6 mg/kg/injection, schedule: Q03HX008 (ip), vehicle: saline) 105 % of control; (dose: 69.0 mg/kg/injection, schedule: Q03HX008 (ip), vehicle: saline) 152 % of control; (dose: 275.0 mg/kg/injection, schedule: Q03HX008 (ip), vehicle: saline) 121 % of control.
For the compound `COc1cccc2c1C(=O)c1c(O)c3c(c(O)c1C2=O)C[C@@](O)(C(=O)CO)C[C@@H]3OC1CC(N)C(O)C(C)O1` (some centres undefined), the T/C is 89 % of control (dose: 0.5 mg/kg/injection, schedule: Q01DX001 (ip), vehicle: saline); 98 % of control (dose: 1.0 mg/kg/injection, schedule: Q01DX001 (ip), vehicle: saline); 94 % of control (dose: 2.0 mg/kg/injection, schedule: Q01DX001 (ip), vehicle: saline); 90 % of control (dose: 4.0 mg/kg/injection, schedule: Q01DX001 (ip), vehicle: saline); 80 % of control (dose: 8.0 mg/kg/injection, schedule: Q01DX001 (ip), vehicle: saline); 91 % of control (dose: 16.0 mg/kg/injection, schedule: Q01DX001 (ip), vehicle: saline).
For `C[n+]1c2ccccc2nc2c(N)cc(N)cc21`, the T/C reads like this: (dose: 4.0 mg/kg/injection, schedule: Q01DX005 (ip), vehicle: suspension in saline) 114 % of control and 97 % of control; (dose: 8.0 mg/kg/injection, schedule: Q01DX005 (ip), vehicle: suspension in saline) 94 % of control and 103 % of control; (dose: 16.0 mg/kg/injection, schedule: Q01DX005 (ip), vehicle: suspension in saline) 104 % of control and 106 % of control; (dose: 32.0 mg/kg/injection, schedule: Q01DX005 (ip), vehicle: suspension in saline) 102 % of control and 108 % of control.
Consider `Nc1ccc2nc3ccc(N)cc3[n+](-c3ccccc3)c2c1`, for which the T/C under setting [1] is 89 % of control; the T/C (dose: 2.0 mg/kg/injection, schedule: Q01DX009 (ip), vehicle: saline) was 87 % of control; the T/C (dose: 4.0 mg/kg/injection, schedule: Q01DX009 (ip), vehicle: saline) was 99 % of control; the T/C (dose: 8.0 mg/kg/injection, schedule: Q01DX009 (ip), vehicle: saline) is 99 % of control.
Regarding `CN(Cc1cnc2nc(N)nc(N)c2n1)c1ccc(C(=O)N[C@@H](CCC(=O)O)C(=O)O)cc1`, the T/C is 110 % of control (dose: 0.38 mg/kg/injection, schedule: Q01DX009 (ip), vehicle: olive oil, sesame oil, peanut oil); 110 % of control (dose: 0.38 mg/kg/injection, schedule: Q01DX009 (ip), vehicle: saline); 112 % of control (dose: 0.75 mg/kg/injection, schedule: Q01DX009 (ip), vehicle: sodium bicarbonate); 123 % of control and 106 % of control (dose: 0.75 mg/kg/injection, schedule: Q01DX009 (ip), vehicle: suspension in saline); 105 % of control (dose: 1.2 mg/kg/injection, schedule: Q04DX003 (ip), vehicle: saline); 112 % of control (dose: 1.5 mg/kg/injection, schedule: Q01DX009 (ip), vehicle: sodium bicarbonate). Besides, the T/C (dose: 1.5 mg/kg/injection, schedule: Q01DX009 (ip), vehicle: suspension in saline) was 96 % of control and 100 % of control; the T/C (dose: 2.3 mg/kg/injection, schedule: Q01DX009 (ip), vehicle: sodium bicarbonate) was 112 % of control; the T/C (dose: 2.3 mg/kg/injection, schedule: Q01DX009 (ip), vehicle: suspension in saline) was 113 % of control and 103 % of control; the T/C (dose: 2.3 mg/kg/injection, schedule: Q04DX003 (ip), vehicle: saline) is 100 % of control; the T/C (dose: 3.4 mg/kg/injection, schedule: Q01DX009 (ip), vehicle: sodium bicarbonate) is 116 % of control; the T/C (dose: 3.4 mg/kg/injection, schedule: Q01DX009 (ip), vehicle: suspension in saline) is 120 % of control and 122 % of control. Moreover, the T/C is 110 % of control (dose: 4.6 mg/kg/injection, schedule: Q04DX003 (ip), vehicle: saline); 100 % of control (dose: 9.2 mg/kg/injection, schedule: Q04DX003 (ip), vehicle: saline); 115 % of control (dose: 18.4 mg/kg/injection, schedule: Q04DX003 (ip), vehicle: saline); 95 % of control (dose: 36.8 mg/kg/injection, schedule: Q04DX003 (ip), vehicle: saline).
For `COc1ccc2c(c1OC(C)=O)-c1cc(OC(C)=O)cc3c1C(C2)N(C(=O)CN(CCCl)CCCl)CC3` (centres undefined), the T/C (dose: 1.5 mg/kg/injection, schedule: Q01DX009 (ip), vehicle: DMSO) is 104 % of control; the T/C (dose: 3.0 mg/kg/injection, schedule: Q01DX009 (ip), vehicle: DMSO) was 101 % of control; the T/C (dose: 6.0 mg/kg/injection, schedule: Q01DX009 (ip), vehicle: DMSO) was 100 % of control; the T/C (dose: 12.0 mg/kg/injection, schedule: Q01DX009 (ip), vehicle: DMSO) was 88 % of control.
For `COc1cc(NCc2ccc3nc(N)nc(N)c3c2C)cc(OC)c1OC` (tested in a mixture with another compound), the T/C (dose: 7.5 mg/kg/injection, schedule: Q01DX009 (ip), vehicle: water) was 100 % of control; the T/C (dose: 15.0 mg/kg/injection, schedule: Q01DX009 (ip), vehicle: water) was 115 % of control; the T/C (dose: 30.0 mg/kg/injection, schedule: Q01DX009 (ip), vehicle: water) is 117 % of control.
For the compound `COc1cc(NC(=O)CN(CCCl)CCCl)cc(OC)c1OC`, the T/C is, setting by setting: (dose: 12.5 mg/kg/injection, schedule: Q01DX009 (ip), vehicle: saline with Tween-80) 113 % of control and 102 % of control; (dose: 25.0 mg/kg/injection, schedule: Q01DX009 (ip), vehicle: saline with Tween-80) 104 % of control and 107 % of control; (dose: 50.0 mg/kg/injection, schedule: Q01DX009 (ip), vehicle: saline with Tween-80) 114 % of control and 118 % of control; under setting [2], 114 % of control; under setting [3], 87 % of control.
As for `COc1ccc2cc1Oc1ccc(cc1)C[C@H]1c3cc(c(OC)cc3CCN1C)Oc1c(OC)c(OC)cc3c1[C@H](C2)N(C)CC3`, the T/C is, setting by setting: (dose: 50.0 mg/kg/injection, schedule: Q01DX005 (ip), vehicle: Klucel (hydroxypropylcellulose) (HPC)) 105 % of control and 106 % of control; (dose: 100.0 mg/kg/injection, schedule: Q01DX005 (ip), vehicle: Klucel (hydroxypropylcellulose) (HPC)) 102 % of control and 105 % of control; (dose: 200.0 mg/kg/injection, schedule: Q01DX005 (ip), vehicle: Klucel (hydroxypropylcellulose) (HPC)) 99 % of control and 108 % of control; (dose: 400.0 mg/kg/injection, schedule: Q01DX005 (ip), vehicle: Klucel (hydroxypropylcellulose) (HPC)) 97 % of control and 104 % of control.
Consider `Nc1ncn(C2OC(CO)C(O)C2O)c(=O)n1` (centres undefined), for which the T/C is, setting by setting: (dose: 12.5 mg/kg/injection, schedule: Q01DX009 (ip), vehicle: saline) 219 % of control; (dose: 25.0 mg/kg/injection, schedule: Q01DX009 (ip), vehicle: saline) 230 % of control; (dose: 50.0 mg/kg/injection, schedule: Q01DX009 (ip), vehicle: saline) 290 % of control; under setting [4], 303 % of control; under setting [5], 303 % of control.
`Cc1cn(C2CC(O)C(CO)O2)c(=O)[nH]c1=O` (centres undefined): the T/C by setting is: under setting [2], 98 % of control and 104 % of control; under setting [4], 93 % of control and 102 % of control; under setting [3], 108 % of control and 109 % of control; under setting [5], 97 % of control and 109 % of control; (dose: 400.0 mg/kg/injection, schedule: Q01DX009 (ip), vehicle: saline with Tween-80) 101 % of control and 109 % of control; (dose: 400.0 mg/kg/injection, schedule: Q01DX009 (ip), vehicle: saline) 94 % of control and 111 % of control. Further, the T/C runs as follows: (dose: 800.0 mg/kg/injection, schedule: Q01DX009 (ip), vehicle: saline with Tween-80) 114 % of control and 111 % of control; (dose: 800.0 mg/kg/injection, schedule: Q01DX009 (ip), vehicle: saline) 104 % of control and 105 % of control; (dose: 1600.0 mg/kg/injection, schedule: Q01DX009 (ip), vehicle: saline with Tween-80) 93 % of control and 101 % of control.
